Results: patent publication US8697385B1, “Protein controlling synthesis of collagen and associated methods” (Florida State University Research Foundation, Inc., priority 2009, dated 2014)

What was measured:
Assay type in all cases: cell-based, human
[1] = test system: LARP6 and nonmuscle myosin; experiment: Coimmunoprecipitation of nonmuscle myosin IIB with HA-tagged LARP6; settings: lung fibroblasts; puromycin 200 μg/ml 2 h vs cycloheximide
Experimental: (§1) ML-7, blebbistatin, cytochalasin B, puromycin, and cycloheximide were purchased from Sigma. ML-7 was used at 40 μM, blebbistatin was used at 100 μM, and cytochalasin B was used at 20 μM. Cells were incubated with the drugs for 16 h before analysis. Puromycin (200 μg/ml) and cycloheximide (100 μg/ml) were added to the cells for 2 h. Human lung fibroblasts have been described previously.16 Scleroderma fibroblasts were purchased from the European Collection of Cell Cultures (cell line BM0070) and derived from the skin of a scleroderma patient. MEFs were derived from knock-in mice in which the 5′SL of the collagen α1(I) gene has been mutated (Parsons et al., submitted). Several independent cell isolates were used throughout the study. All cells were cultured in Dulbecco's modified Eagle's medium supplemented with 10% fetal bovine serum for up to 10 passages. Plasmid constructs and adenovirus preparation. […] [^32P]dCTP was included in the PCR step to label the products, which were resolved on sequencing gels, as described previously.^8,31,49,50 When RNA from polysomal fractions was analyzed, an equal aliquot of each fraction was used. […]
One of the roles of nonmuscle myosin filaments may be to present collagen mRNAs to ribosomes. Therefore, we assessed if the association of collagen mRNAs with nonmuscle myosin is dependent on intact polysomes. […]

[2] = test system: LARP6 and vimentin; experiment: Coimmunoprecipitation of vimentin with HA-tagged LARP6; settings: lung fibroblasts; puromycin 200 μg/ml 2 h vs cycloheximide
Experimental: as §1, with “submitted).” for “submitted). Several independent cell isolates were used throughout the study. All cells were cultured in Dulbecco's modified Eagle's medium supplemented with 10% fetal bovine serum for up to 10 passages. Plasmid constructs and adenovirus preparation.”
(§2) One of the roles of nonmuscle myosin filaments may be to present collagen mRNAs to ribosomes. Therefore, we assessed if the association of collagen mRNAs with nonmuscle myosin is dependent on intact polysomes. […] We then immunoprecipitated nonmuscle myosin from lung fibroblasts treated with cycloheximide or puromycin and analyzed if this can change the pull-down of collagen mRNAs. As control, the association with vimentin was analyzed in the same samples (FIG. 9b). […]

[3] = test system: myosin IIB; experiment: Western blot analysis of total nonmuscle myosin IIB level; settings: lung fibroblasts; puromycin 200 μg/ml 2 h vs cycloheximide-treated cells
Experimental: as §1, with “passages.” for “passages. Plasmid constructs and adenovirus preparation.”
Protein concentration was estimated by the Bradford assay, with bovine serum albumin as standard.^51 Western blot analyses of cellular proteins were performed using 50 μg of protein. […] The medium was collected, and an aliquot was analyzed directly by Western blot analysis. […]

[4] = test system: nonmuscle myosin IIB; experiment: Immunoprecipitation of nonmuscle myosin IIB and RT-PCR of collagen mRNAs; settings: lung fibroblasts; cycloheximide 100 μg/ml or puromycin 200 μg/ml, 2 h
Experimental: as §1, with “submitted).” for “submitted). Several independent cell isolates were used throughout the study. All cells were cultured in Dulbecco's modified Eagle's medium supplemented with 10% fetal bovine serum for up to 10 passages. Plasmid constructs and adenovirus preparation.”
as §2

[5] = test system: polysomes; experiment: Fractionation of polysomes on sucrose gradients; settings: 15-45% sucrose gradient, Western blot; puromycin or ML-7 treatment
Experimental: ML-7, blebbistatin, cytochalasin B, puromycin, and cycloheximide were purchased from Sigma. ML-7 was used at 40 μM, blebbistatin was used at 100 μM, and cytochalasin B was used at 20 μM. Cells were incubated with the drugs for 16 h before analysis. Puromycin (200 μg/ml) and cycloheximide (100 μg/ml) were added to the cells for 2 h. Human lung fibroblasts have been described previously.16 Scleroderma fibroblasts were purchased from the European Collection of Cell Cultures (cell line BM0070) and derived from the skin of a scleroderma patient. MEFs were derived from knock-in mice in which the 5′SL of the collagen α1(I) gene has been mutated (Parsons et al., submitted). Several independent cell isolates were used throughout the study. All cells were cultured in Dulbecco's modified Eagle's medium supplemented with 10% fetal bovine serum for up to 10 passages. Plasmid constructs and adenovirus preparation. The HA-tagged LARP6 clone and the deletion mutants have been described previously.^16 Adenoviruses were constructed by recloning of the constructs into the pAdCMVTRACK vector, followed by recombination with the pAdEasy vector and amplification, as described previously.^48 Expression of each construct was verified by Western blot analysis. The viruses made express both the full-size test protein and the green fluorescent protein (GFP), which is encoded by an independent transcription unit.^48 Expression of GFP served as control for viral transduction. RT-PCR analysis Total cellular RNA was isolated using an RNA isolation kit (Sigma). RT-PCRs were performed with 100 ng of total RNA or using rTth reverse transcriptase (Boca Scientific, Boca Raton, Fla.). [^32P]dCTP was included in the PCR step to label the products, which were resolved on sequencing gels, as described previously.^8,31,49,50 When RNA from polysomal fractions was analyzed, an equal aliquot of each fraction was used. The number of cycles was adjusted to within the linear range of the reaction. The primers used for RT-PCR were as follows: h-collagen α1(I), 5′ primer […] (SEQ ID NO:3) and 3′ primer […] (SEQ ID NO:4); h-collagen α2(I), 5′ primer […] (SEQ ID NO:5) and 3′ primer […] (SEQ ID NO:6).
Polysomes were fractionated as described previously.^16 Sucrose fractions (0.5 ml) were collected, and total RNA was extracted by phenol/chloroform and isopropanol precipitation. Equivalent amounts of each fraction were analyzed by RT-PCR. Total proteins were extracted from sucrose fractions by trichloroacetic acid precipitation, and equivalent amounts were analyzed by Western blot analysis.
One of the roles of nonmuscle myosin filaments may be to present collagen mRNAs to ribosomes. Therefore, we assessed if the association of collagen mRNAs with nonmuscle myosin is dependent on intact polysomes. […] Only the anti-myosin antibody immunoprecipitated collagen α1(I) and α2(I) mRNAs (lane 1). We then immunoprecipitated nonmuscle myosin from lung fibroblasts treated with cycloheximide or puromycin and analyzed if this can change the pull-down of collagen mRNAs. As control, the association with vimentin was analyzed in the same samples (FIG. 9b). […] The association of collagen mRNAs with vimentin increased after the dissociation of polysomes (lanes 3 and 4). […] To assess if nonmuscle myosin copurifies with polysomes, we fractionated polysomes on sucrose gradients^16 and analyzed for the presence of nonmuscle myosin in the fractions using Western blot analysis (FIG. 9f). […]

[6] = test system: vimentin; experiment: Immunoprecipitation of vimentin and RT-PCR of collagen mRNAs; settings: lung fibroblasts; puromycin (dissociation of polysomes) vs cycloheximide
Experimental: as §1, with “submitted).” for “submitted). Several independent cell isolates were used throughout the study. All cells were cultured in Dulbecco's modified Eagle's medium supplemented with 10% fetal bovine serum for up to 10 passages. Plasmid constructs and adenovirus preparation.”
as §2

COc1ccc(C[C@H](N)C(=O)N[C@H]2[C@@H](O)[C@H](n3cnc4c(N(C)C)ncnc43)O[C@@H]2CO)cc1 [puromycin]
interaction of LARP6 and nonmuscle myosin [1]: decreased | interaction of LARP6 with vimentin [2]: increased | total level of nonmuscle myosin [3]: did not change | collagen α1(I) and α2(I) mRNAs pulled down with nonmuscle myosin IIB [4]: the great majority of these mRNAs were absent | nonmuscle myosin in polysomal fractions [5]: some nonmuscle myosin was lost, mostly from fractions 1-10 | association of collagen mRNAs with vimentin [6]: increased
